# Assay results: patent US8748569B2, “Peptide amphiphiles and methods to electrostatically control bioactivity of the ikvav peptide epitope” (Northwestern University, priority 2011, dated 2014)
# Peptide text beside a SMILES is read from it. * marks the point of attachment. Palmitoyl = CCCCCCCCCCCCCCCC(=O)*
# Columns and labels:
# [1] = Small-angle X-ray scattering (SAXS) of PA nanostructures; type: physicochemical; conditions: (Core) Shell Cylinder SAXS model; for Total SAXS Cross-section dimensions: diameter
# Source text: Small-angle X-ray scattering (SAXS) measurements were obtained using a Rigaku S-MAX 3000 High Brilliance SAXS System. Cu Ka radiation was generated by Osmic MicroMaxs, an integrated microfocus sealed tube generator (powered at 45 kV and 0.9 mA) with Osmict Confocal Max-Fluxs optics, 3 pinholes collimation. A 20×20 cm^2 2D position-sensitive wire detector (1024×1024 pixels) was positioned 150 cm behind the examined samples, resulting in a q-range of 0.07-2.8 nm^−1. The wave vector defined as, q=(4π/λ)sin(2θ/2), where 2y is the scattering angle and λ is wavelength of Cu Kα radiation (1.542 Å). A total of 10^6 or more counts were collected in order to obtain a high signal to noise ratio. Samples were measured for 3600 s, and then background subtracted from data collected using a capillary containing the isotonic salt solution. The 2D SAXS patterns were azimuthally averaged and the background subtracted using standard methods. Data analysis was based on fitting the scattering curve to an appropriate model by a least-squares method using software provided by NIST (NIST SANS analysis version 7.0 on IGOR) ^21 The table below lists the models used to fit the SAXS curves. The Total SAXS cross-sectional dimensions correspond to length and width for molecule 2, and diameter for 3-5.
# [2] = Circular dichroism (CD); type: physicochemical; conditions: 1 wt % in 150 mM NaCl, 3 mM KCl
# Protocol: CD was done using a model J-715 Jasco Circular Dichroism Spectrometer. 1 wt % PA solutions were prepared in either a 150 mM NaCl, 3 mM KCl solution or a 150 mM NaCl, 3 mM KCl, and 5 mM CaCl2 solution, both at a pH of 7.2-7.4, as determined via pH paper. The solutions were then heated to 80° C. in a water bath for 1 hr, and then slowly cooled to room temperature over the course of 8 hr. The samples were measured through 0.01 mm quartz plates. Each trace represents the average of three scans. The mean residue ellipticity was corrected for purity of the lyophilized powder from peptide content analysis.
# [3] = Solubility in physiologically relevant monovalent salt solution; type: physicochemical; conditions: monovalent salt solution composed of 150 mM NaCl and 3 mM KCl
# [4] = tested on: P19 embryonal carcinoma cells differentiated into neurons; assay: Neurite outgrowth of neurons cultured in peptide amphiphile gels; type: cell-based, murine; conditions: compared to gels of PA 1; for promotion of neurite outgrowth (in words): gels containing 0.2 wt % of the PA with 0.8 wt % PA 1
# Protocol: P19 embryonal carcinoma cells were cultured in media composed of α-MEM (Gibco), 7.5% newborn calf serum (Lonza), 2.5% fetal bovine serum (Gibco), penicillin (100 units/ml) and streptomycin (100 ug/ml) (Invitrogen). Neuronal differentiation was induced by plating P19 cells in non-treated Petri dishes in media containing 5 uM retinoic acid (Sigma) for 4 days. Neurospheres were collected from the Petri dish and allowed to settle in a centrifuge tube for 10 minutes. Media was removed, then trypsin/EDTA solution was added and the tube was gently agitated for 5 minutes. Cells were dissociated by triturating the neurospheres, then media was added to inactivate the trypsin. Cells were centrifuged and the pellet resuspended in media to a concentration of 25,000 cells/ul. Cells were mixed (1:4) with PA solution. The PA/cell solution was pipetted into coverslip-bottom culture dishes (MatTek) and covered with gelling solution (150 mM NaCl, 3 mM KCl, 25 mM CaCl2) for 1 minute to induce gelation, then rinsed with a 150 mM NaCl, 3 mM KCl solution, then media was added to the dish. Cells were cultured for 2 days.
# In order to assay neurite outgrowth, gels were rinsed with PBS, then fixed in 4% paraformaldehyde for 30 minutes at room temperature. Gels were rinsed 3× with PBS followed by addition of 10% normal goat serum blocking solution (Invitrogen) with 0.1% Triton X-100 added. Gels were incubated overnight with primary antibody (rabbit anti-β-III-tubulin IgG, 1/2000, Covance) in blocking solution. Gels were rinsed 3× with PBS, then blocked for 30 minutes with blocking solution. Next, gels were incubated with secondary antibody (Alexa Fluor 488 goat anti-rabbit IgG, 1/100, Invitrogen) in blocking solution for 1 hour. After one PBS rinse, nuclei were stained with a 5 ug/ml solution of Hoecsht 34580 (Invitrogen) in PBS for 15 minutes, then rinsed 4 times. Gels were imaged on a Zeiss LSM 510 META laser scanning confocal microscope, individually acquiring z-stacks of randomly chosen cells with neurites. Two gels were imaged per condition for each experiment. Experiments were done in triplicate. For each condition, at least 50 neurons with neurites were imaged. Using the Simple Neurite Tracer plug-in for ImageJ software, neurites were traced and measured. A one-way ANOVA, followed by paired t-tests, were performed to determine significance between conditions. Researchers were blinded to the conditions during imaging and tracing.
# Pluripotent murine P19 embryonal carcinoma cells were differentiated into neurons. These neurons were then homogeneously distributed into isotonic salt solutions composed of 0.8 wt % PA 1 mixed with 0.2 wt % 2-5 and gelled with 25 mM CaCl2 (FIG. 3a,b). Mixtures of 1 with 2-5 were used in biological experiments in order to form robust gel matrices capable of supporting cells in culture. After two days of culture, the cells were fixed and the neurites and nuclei were fluorescently labelled green and blue using β-III-tubulin immunostaining and Hoechst staining, respectively, then imaged by confocal microscopy (FIG. 14). Neurites were traced and measured, and average neurite lengths were calculated (FIG. 15).
# [5] = Transmission electron microscopy (cryoTEM / conventional TEM) of PA nanostructures; type: physicochemical; conditions: for fiber diameter in trimer ribbons: cryoTEM / TEM, fibers aggregated side-by-side; for OBSERVED FIBER DIAMETER: from TEM; for ASSEMBLED MORPHOLOGY: observed morphologies from TEM; for average diameter of cylindrical fibers: cryoTEM, 150 mM NaCl, 3 mM KCl, pH 7.4
# Protocol: The nanostructure of each PA molecule under physiologically relevant conditions was investigated using electron microscopy. Samples for vitreous ice cryo-transmission electron microscopy (cryoTEM) were prepared from a 0.1-0.5 wt % PA solution dissolved in 150 mM NaCl, 3 mM KCl, or in a 150 mM NaCl, 3 mM KCl, and 5 mM CaCl2 solution, both at a pH of 7.2-7.4. The solutions were then heated to 80° C. in a water bath for 1 hr, and then slowly cooled to room temperature over the course of 8 hr. 10 μL of each solution was pipetted onto a plasma cleaned holey carbon TEM grid (Electron Microscopy Sciences), blotted and plunged into liquid ethane using a FEI Vitrobot Mark IV. Samples were kept at −180° C. and imaged using a JEOL 1230 TEM operating at 100 kV.
# Samples for conventional TEM microscopy were prepared from 0.1 wt % PA solution dissolved in ultrapure water and adjusted to a pH of 7.2-7.4 by adding NaOH. The solutions were then heated to 80° C. in a water bath for 1 hr, and then slowly cooled to room temperature over the course of 8 hr, unless noted otherwise. 2 μL of a 0.1 wt % PA solution was pipetted onto a Carbon Formvar grid (Electron Microscopy Sciences) and allowed to dry. The samples were then negatively stained by pipetting 2 uL of a 2 wt % Uranyl acetate solution and allowed to dry. Each sample was imaged using a JEOL 1230 TEM operating at 100 kV. The average diameter of nanofibers was obtained via measuring 40-100 different fibers from solutions and grids prepared throughout multiple days.
# The assembly of each PA molecule under physiologically relevant conditions was examined using cryogenic electron microscopy (cryoTEM), as described in Example 4. PAs were dissolved in isotonic salt solutions resembling extracellular fluid (150 mM NaCl, 3 mM KCl, pH 7.4). […] In order to compare molecular simulation diameters with those observed from TEM, molecular simulation values for the other four PA molecules were scaled by the same amount, 87%.
compound,measurement,setting,value
"CCCCCCCCCCCCCCCC(=O)N[C@H](C(=O)N[C@H](C(=O)N[C@@H](C)C(=O)N[C@@H](C)C(=O)N[C@@H](CCC(=O)O)C(=O)N[C@@H](CCC(=O)O)C(=O)N[C@@H](CCC(=O)O)C(=O)NCC(=O)N[C@H](C(=O)N[C@@H](CCCCN)C(=O)N[C@H](C(=O)N[C@@H](C)C(=O)N[C@H](C(=O)O)C(C)C)C(C)C)[C@@H](C)CC)C(C)C)C(C)C [PA 3, CH3(CH2)14C(O)-VVAAEEEGIKVAV-OH] (Palmitoyl-VVAAEEEGIKVAV-OH)",Core Diameter,[1],1.2 nm
same,Shell Thickness,[1],3.8 ± 0.6 nm
same,Total SAXS Cross-section dimensions,[1],7.6 ± 1.2 nm
same,peptide secondary structure from CD spectrum,[2],beta-sheet like CD signatures
same,solubility,[3],soluble
same,promotion of neurite outgrowth (in words),[4],promoted neurite outgrowth
same,promotion of neurite outgrowth (in words),[4]; listed as SEQ ID NO. 5,promote neurite outgrowth
same,increase in neurite outgrowth,"[4]; gels of 0.8 wt % PA 1 mixed with 0.2 wt % of the PA, gelled with 25 mM CaCl2, 2 days culture",42±13%
same,fiber diameter in trimer ribbons,[5],7.1±1 nm
same,diameter of cylindrical assemblies,[5]; cryoTEM and conventional TEM,12.8±1.3 nm
same,OBSERVED FIBER DIAMETER,[5]; Cylindrical morphology,128 ± 14 Å
same,OBSERVED FIBER DIAMETER,[5]; Trimer ribbon morphology,71 ± 5 Å
same,ASSEMBLED MORPHOLOGY,[5]; Cylindrical morphology,Cylindrical
same,ASSEMBLED MORPHOLOGY,[5]; Trimer ribbon morphology,Trimer ribbon
CH3(CH2)14C(O)-VVAAEE-NH2 (Palmitoyl-VVAAEE-NH2) [PA 1],average diameter of cylindrical fibers,[5],6.7±0.9 nm
same,average diameter of cylindrical fibers,[5]; listed as PA compound 1,6.7 nm
same,OBSERVED FIBER DIAMETER,[5],66 ± 9 Å
same,ASSEMBLED MORPHOLOGY,[5],Cylindrical fiber
CH3(CH2)14C(O)-VVAAEEEGGIKVAV-OH (Palmitoyl-VVAAEEEGGIKVAV-OH; SMILES CCCCCCCCCCCCCCCC(=O)N[C@H](C(=O)N[C@H](C(=O)N[C@@H](C)C(=O)N[C@@H](C)C(=O)N[C@@H](CCC(=O)O)C(=O)N[C@@H](CCC(=O)O)C(=O)N[C@@H](CCC(=O)O)C(=O)NCC(=O)NCC(=O)N[C@H](C(=O)N[C@@H](CCCCN)C(=O)N[C@H](C(=O)N[C@@H](C)C(=O)N[C@H](C(=O)O)C(C)C)C(C)C)[C@@H](C)CC)C(C)C)C(C)C) [PA 4],Core Diameter,[1],.93 nm
same,Shell Thickness,[1],2.63 ± 1.1 nm
same,Total SAXS Cross-section dimensions,[1],7.1 ± 2.2 nm
same,promotion of neurite outgrowth (in words),[4],did not show any biological activity with respect to neurite outgrowth
same,promotion of neurite outgrowth (in words),[4]; listed as 4,did not
same,fiber diameter in bundled dimers,[5]; cryoTEM and conventional TEM,8.1±1.0 nm
same,fiber diameter in triple helices,[5]; cryoTEM and conventional TEM,7.7±0.9 nm
same,OBSERVED FIBER DIAMETER,[5]; Dimer Bundle morphology,77 ± 9 Å
same,OBSERVED FIBER DIAMETER,[5]; Triple helix morphology,81 ± 10 Å
same,ASSEMBLED MORPHOLOGY,[5]; Dimer Bundle morphology,Dimer Bundle
same,ASSEMBLED MORPHOLOGY,[5]; Triple helix morphology,Triple helix
CH3(CH2)14C(O)-VVAAEEGIKVAV-OH (Palmitoyl-VVAAEEGIKVAV-OH; SMILES CCCCCCCCCCCCCCCC(=O)N[C@H](C(=O)N[C@H](C(=O)N[C@@H](C)C(=O)N[C@@H](C)C(=O)N[C@@H](CCC(=O)O)C(=O)N[C@@H](CCC(=O)O)C(=O)NCC(=O)N[C@H](C(=O)N[C@@H](CCCCN)C(=O)N[C@H](C(=O)N[C@@H](C)C(=O)N[C@H](C(=O)O)C(C)C)C(C)C)[C@@H](C)CC)C(C)C)C(C)C) [PA 2],peptide secondary structure from CD spectrum,[2],beta-sheet like CD signatures
same,promotion of neurite outgrowth (in words),[4],no enhancement of neurite outgrowth
same,promotion of neurite outgrowth (in words),[4]; listed as 2,did not
same,fiber diameter in trimer ribbons,[5],6.0±0.5 nm
same,OBSERVED FIBER DIAMETER,[5],60 ± 5 Å
same,ASSEMBLED MORPHOLOGY,[5],Trimer ribbon
